Among the data in patent US12391768B2, “Antibodies to ticagrelor and methods of use” (MEDIMMUNE LIMITED, priority 2014, dated 2025) are IC50 values, retold here.

The target of this assay is TICA0010 Fab. The assay can be described thus: HTRF competition binding selectivity assay, TICA0010 His-Fab. Further details: species or system human. As to conditions: first series (Table 2), not DMSO normalised; read-out: IC50 (uM) for inhibition of biotinylated ticagrelor binding to TICA00l0 his-Fab. On the procedure: Total Binding control wells were set up which contained all of the assay components above except that 5 ul assay buffer was added in place of the test selectivity compound addition. Negative Binding control wells were set up which contained all of the assay components included in the Total Binding control wells except that 5ul assay buffer was added in place of the His-Fab addition. Test compound serial titrations were either ½ or ⅓ depending on the particular experiment and top final assay compound concentrations were optimized on a compound specific basis. The concentration of biotinylated ticagrelor and His-Fab was optimized on a Fab specific basis in separate experiments. For the four Fabs investigated at the end of the lead isolation phase (TICA0010, TICA0049, TICA0053 and TICA0072) the final assay reagent concentrations used are set out in Table 1 below:
For the two Fabs investigated at the end of the lead optimization phase (TICA0162 and TICA0212) the final assay reagent concentrations used were 5nM biotinylated ticagrelor and 1 nM His Fab in both cases. […] In order to enable subsequent normalization of data to correct for any such vehicle related effects parallel titrations of DMSO alone were included in most experiments in which the final assay DMSO concentrations mirrored those of the test compound serial dilutions. At the end of the set up procedure that assay was incubated for 3hrs at RT before being read on an Envision plate reader using a standard read protocol.
The negative ratio value used in the calculation of % Delta F was derived from the Negative Binding control wells. % Delta F values were then used to calculate % Specific Binding values according to the equation below: Specific Binding (%)={(Sample Delta F−Negative Binding Delta F)/(Total Binding Delta F−Negative Binding Delta F)}×100
For standard calculations of % Specific Binding Total Binding Delta F was taken from Total Binding control wells which contained all of the aforementioned components of the assay but without inclusion of any competing test compound.
In those experiments where DMSO normalization was applied DMSO normalised % Specific Binding was calculated essentially according to the equation above except that in this case Total Binding Delta F was taken from wells containing all of the components in the Total Binding control wells as well as DMSO at a concentration equivalent to that in the relevant sample well.

As to `CCCSc1nc(N[C@@H]2C[C@H]2c2ccc(F)c(F)c2)c2nnn([C@@H]3C[C@H](OCCO)[C@@H](O)[C@H]3O)c2n1` [Ticagrelor, (1S,2S,3R,5S)-3-[7-{[(1R,2S)-2-(3,4-difluorophenyl)cyclopropyl]amino}-5-(propylthio)-3H-[1,2,3]triazolo[4,5-d]pyrimidin-3-yl]-5-(2-hydroxyethoxy)cyclopentane-1,2-diol], the IC50 (commonly the midpoint of a concentration-inhibition curve) came out at 0.122 µM.
